Test results as given in patent US20040037868A1, “Select prebiotics for use in weight attenuation message and method of communication” (priority 2002, published 2004).

What was measured:
[1] = associated with a 1000-mg calcium intake increase; women of various ages; estimate; cited from earlier work
[2] = double blind three-week study of calcium retention and absorption, inulin delivered in a RTE cereal (mass balance, stable isotope enrichment); type: in vivo, human; conditions: adolescent girls, ages 11-13, roughly 1600 mg calcium per day and 9 grams of inulin, three weeks
Protocol: In one double blind study ranging over a period of three weeks, a number of adolescent girls, ages 11-13, were provided with a diet containing roughly 1600 mg/calcium per day and 9 grams of inulin. The diet was delivered as part of a RTE cereal and the amount of calcium retention and absorption was measured by mass balance and stable isotope enrichment. Stool and urine samples were collected and analyzed for calcium excretion by atomic absorption spectrometry. Calcium retention was calculated as: Diet Ca−urine Ca−fecal Ca. Blood samples were also taken at prescribed intervals and serum and urine were analyzed for Ca by plasma mass spectrometry. The results of the analysis provided that inulin had no effect on the retention or absorption of calcium by subjects in this particular demographic.

[3] = calcium absorbed and retained in postmenopausal women versus placebo; type: in vivo, human; conditions: inulin in a food product
Excerpt: It is believed that food products prepared in accordance with the present invention, would however provide an enhanced benefit to certain selected demographic sections of the population, namely postmenopausal women.

Row | Molecule | decrease in mean body weight [1] [kg] | effect on absorption of calcium [2] | effect on retention of calcium [2] | level of calcium absorbed and retained versus placebo [3]
1 | [Ca+2] [calcium] | 8 | – | – | –
2 | inulin | – | no effect | no effect | higher
